One compound from patent publication US6635242B2, “Broad spectrum microbicidal and spermicidal compositions, devices, and methods” (The Pennsylvania State University, priority 1998, dated 2003) can be followed below.

The test system of assay [1] is HIV-1-infected SupT1 cells. In words: Cell-associated HIV-1 infectivity (FIG. 6). The assay is classed as cell-based, human immunodeficiency virus. As to conditions: 10 min at 37° C., co-culture with HCLB cells, FIG. 6(a). How it is done:
(A) SupT1 T lymphocytes (8×10^4)infected 5 days prior with HIV-1 strain IIIB were pelleted and resuspended in new media to remove cell-free virus. After exposure to selected concentrations of each microbicide for 10 min at 37° C., the cells were diluted 1:10 and co-cultured with HCLB cells for 2 h. Following one wash with PBS to remove the infected lymphocytes, the indicator cells were cultured and assayed. Infectivity following exposure is expressed as a percentage relative to the number of β-gal-positive cells in duplicate wells infected with HIV-1 infected SupT1 cells incubated in the absence of a microbicidal compound. Results shown in FIG. 6(a) are the average cell counts for a total of four wells per concentration in two independent experiments. (B) SupT1 T lymphocytes (8×10^4) were incubated with selected concentrations of each microbicide for 10 min at 37° C., and then diluted 1:10 with new media. Following a 2 h incubation period, the cells were assessed for viability. Cell survival after treatment is expressed as the fraction of viable cells relative to the number of mock-exposed cells. Results shown in FIG. 6(b) are the average of two experiments in which triplicate wells for each concentration were assayed.

The subject of assay [2] is HSV-2 (strain 333). Nature of the assay: HSV-2 inactivation assay (plaques on CV-1 monolayers). The format is cell-based, herpes simplex virus. To be noted: 37° C. 10 min, virus then diluted 100 fold. How it is done:
HSV-2 (strain 333) virus stocks were propagated by low multiplicity infection of African Green monkey kidney (CV-1) cells and subsequent preparation of cell-free supernatants from frozen and thawed preparations of lytically infected cultures. Virus titers were determined by assay in CV-1 cell monolayers. Virus stocks were maintained in CV-1 cell culture medium which was Dulbecco's medium supplemented with antibiotics and 10% fetal calf serum.
For inactivation of HSV-2, 39 μl of virus was mixed with 1 μl of a 40×concentrated solution of detergent and then incubated at 37° C. for 10 min. After inactivation, the 40 μl of virus sample was diluted to 4 ml (1:100) using cell culture medium, and 1 ml of the diluted virus was adsorbed onto CV-1 monolayers for 1 hr at 37° C. Following adsorption, monolayers were refed and incubated at 37° C., 5% CO2. Between 20 and 24 hr post infection, monolayers were fixed, stained with crystal violet and plaques counted using a dissecting microscope. The numbers in Table 1 each represent an average of 2 plates.

Assay [3] deals with HIV-1 (strain IIIB). In words: HIV-1 inactivation assay (HeLa-CD4-LTR-β-gal indicator cells). The format is cell-based. To be noted: 10 min 37° C. How it is done:
One day prior to the assay, HeLa-CD4-LTR-β-gal cells were seeded into 12-well culture dishes at a concentration of 8×10^4 cells per well. A high titer (10^7.17 TCID50/ml) virus stock of HIV-1 (strain IIIB; Advanced Biotechnologies, Inc., Columbia, Md.) was diluted 1:10 with RPMI 1640 supplemented with 10% FBS. To assess viral inactivation by SDS, 78 μl of diluted virus were mixed with 2 μl of detergent solution, and incubated for 10 min at 37° C. After the inactivation period, the virus and detergent were diluted with 720 μl R10 (1:10) supplemented with DEAE dextran (20 μg/ml final concentration). Aliquots of treated virus (300 μl) were then added to duplicate wells of HeLa cells and incubated at 37° C. for 2 hr. Following viral adsorption, 2 ml of fresh media (DMEM supplemented with 10% FBS, 0.1 mg/ml G418, and 0.05 mg/ml hygromycin B) were added to each well. After incubation at 37° C. and 5% CO2 for 48 hr post-infection, cells were fixed and stained for β-galactosidase expression.
It is established that N-9 can inactivate HIV-1. We compared inactivation of HIV-1 by a second non-ionic detergent, C31G, and by SDS. High titer virus stocks of HIV-1 were incubated with either C31G or SDS and then virus was assayed on indicator cells expressing β-gal under the control of the HIV-1 LTR. After 48 hours, cells were stained and the number of cells expressing increased β-gal counted. […].

In assay [4] the test system is lymphocyte-, macrophage- and dual-tropic strains of HIV-1 (IIIB, BaL, 89.6). Nature of the assay: Cell-free HIV-1 inactivation (FIG. 5). The format is cell-based, human immunodeficiency virus. To be noted: HCLB or P4-R5 indicator cells. How it is done:
Cell-free HIV-1 strain IIIB (A) was treated with N-9, C31G, or SDS, and used to infect HCLB cells. Cell-free HIV-1 strains BaL (M tropic) (B) and 89.6 (dual tropic) (C) were treated with N-9, C31G or SDS,and used to infect P4-R5 cells. Assays were conducted. Infectivity following exposure is expressed as a percentage relative to the number of β-gal-positive cells in duplicate wells infected with virus incubated in the absence of a microbicidal compound. Results shown in FIG. 5 are the average cell counts for a total of four wells per concentration in two independent experiments.

The subject of assay [5] is HPV 11. Nature of the assay: Human papilloma induction: HPV 11 in human foreskin xenografts in athymic mice. The assay is classed as in vivo, human papillomavirus. How it is done:
Stocks of experimentally generated infectious HPV 11 were prepared and represented 10% w/v cell free extracts of virus in PBS. Undiluted aliquots of virus stocks (39 μl ) were mixed with a 40×solution of SDS 1 μl ), incubated at 37° C. for 10 min and immediately used to infect split thickness grafts of newborn human foreskin epithelium. Virus was not subsequently diluted. Control grafts were infected with untreated virus stock. Virus adsorption was for 1 hr at 37° C. […] Grafts were then transplanted beneath the renal capsule of athymic mice. Animals were maintained in isolator bubbles with antibiotic supplemented drinking water in the animal colony of the Hershey Medical Center. Three months following infection, animals were sacrificed, their kidneys were removed, and the xenografts were grossly examined. The remaining organs were examined for any apparent abnormalities and none were found. Portions of each graft were immediately fixed in 10% neutral-buffered formalin and processed by standard histologic techniques for staining with hematoxylin and eosin.
Standard stocks of HPV 11 were used as undiluted virus. These virus stocks normally induce Condylomata in 90-100% of infected xenografts when diluted 1000 fold. […] Infection was then carried out for 1 hr and the grafts subsequently transplanted in vivo. Eight animals (16 kidneys) received grafts infected with SDS treated virus and 9 animals (17 kidneys) received normal virus. […] In the normal infections, 17 of 17 grafts survived and of these, 14 were transformed morphologically upon histologic examination and had typical papillomatous appearance.
In general terms: A xenograft is tissue or cells of one species grown in another, often human tumour cells in immunodeficient mice.

[6] abbreviates: 0.025 % SDS during treatment (as printed in Table 5), grafts harvested after three months.
[7] abbreviates: undiluted HPV 11 treated with 0.05% SDS, 37° C. 10 min.

Take `CCCCCCCCCCCCOS(=O)(=O)[O-].[Na+]` [SDS, Sodium dodecyl sulfate]: the “cell-associated infectivity of HIV-1-infected SupT1 cells” value in assay [1] is recorded as “can reduce the cell-associated infectivity”. The “Plaques/Plate (5 experiments)” value is 0/0/0/0/0 in assay [2] (1 × 10^−1 % SDS during treatment); 0/0/0/0/0 in assay [2] (1.25 × 10^−2 % SDS during treatment); 0/0/0/0/0 in assay [2] (2.5 × 10^−2 % SDS during treatment); 28/54/322/145/104 in assay [2] (2.5 × 10^−3 % SDS during treatment); 0/0/0/0/0 in assay [2] (5 × 10^−2 % SDS during treatment). The “concentration (as low as) giving total inactivation of HIV-1” value in assay [3] is 0.025%. For the same compound, the “inactivation of cell-free HIV-1 strains IIIB, BaL and 89.6 (infectivity, β-gal-positive cells)” value in assay [4] was “inactivated”. Also, the “surviving grafts/ transplanted grafts” value in assay [5] (setting [6]) was 13/16. In assay [5] (setting [6]), this compound yielded a total papillomas of 0. In addition, in assay [5] (setting [7]), the “prevention of HPV 11 infection of xenografts” value is listed as “effectively prevented virus infection”. The “xenografts showing viable tissue at harvest (normal, viable differentiating human epithelium)” value in assay [5] (setting [7]) is listed as 13 out of 16.
